# Assay results: article PMC5793061, “Functional Expression and Characterization of the Recombinant N-Acetyl-Glucosamine/N-Acetyl-Galactosamine-Specific Marine Algal Lectin BPL3” (Marine Drugs, 2018)
# Key:
# Assay type in all cases: binding
# rD2BPL3 [1] = molecular target: T1, rD2BPL3 (Bryopsis plumosa, UniProt A0A1J0CRG2); test: inhibition of hemagglutination, human erythrocytes; details: PBS, 4 HU lectin, human type B erythrocytes, two-fold dilutions
# T1 construct: artificial tandem repeat of two identical BPL3 domains in one chain, 4-residue linker
# T1 sequence (A0A1J0CRG2 29-134): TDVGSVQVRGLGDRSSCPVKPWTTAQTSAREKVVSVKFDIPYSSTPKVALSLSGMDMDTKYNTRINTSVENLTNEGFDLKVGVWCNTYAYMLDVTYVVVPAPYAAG
# Excerpt: inhibition of hemagglutination, human erythrocytes on rD2BPL3
# native BPL3 [2] = molecular target: T2, native BPL3 (Bryopsis plumosa, UniProt A0A1J0CRG2); test: inhibition of hemagglutination, human erythrocytes; details: PBS, 4 HU lectin, human type B erythrocytes, two-fold dilutions
# T2 construct: native purification from alga by GalNAc-agarose, eluted with GlcNAc; not pure, BPL4 band seen; may consist of 2-6 domains
# T2 sequence (A0A1J0CRG2 29-134): T1 sequence (A0A1J0CRG2 29-134)
# Excerpt: inhibition of hemagglutination, human erythrocytes on native BPL3
# rD2BPL3 [3] = molecular target: T1, rD2BPL3; test: glycan microarray, biotinylated lectin, Cy3-streptavidin; details: 50 μg/mL lectin; glycan immobilised through spacer
# Excerpt: glycan microarray, biotinylated lectin, Cy3-streptavidin on rD2BPL3
# native BPL3 [4] = molecular target: T2, native BPL3; test: as above; details: 50 μg/mL lectin; glycan immobilised through spacer
# Excerpt: glycan microarray, biotinylated lectin, Cy3-streptavidin on native BPL3
Compound,Minimum Inhibitory Concentration / rD2BPL3 (rD2BPL3 [1]) [mM],Minimum Inhibitory Concentration / Native BPL3 (native BPL3 [2]) [mM],RFU (Normalized) / rD2BPL3 (rD2BPL3 [3]) [RFU],RFU (Normalized) / Native BPL3 (native BPL3 [4]) [RFU]
CC(=O)N[C@H]1C(O)O[C@H](CO)[C@H](O)[C@@H]1O (stereo partly drawn) [N-acetyl-D-galactosamine],31.25,62.5,–,–
CC(=O)N[C@H]1C(O)O[C@H](CO)[C@@H](O)[C@@H]1O (stereo partly drawn) [N-acetyl-D-glucosamine],62.5,125,–,–
D-Cellose-β-Sp1 [compound 87],–,–,1119,–
"GlcNAc-β-1,2-Man-α-Sp [compound 45]",–,–,1290,–
α-Fuc-Sp [compound 4],–,–,1313,–
α-Man-Sp [compound 3],–,–,1322,1025
